Test results reported in patent publication US20180291468A1, “MARKERS OF TUMOR CELL RESPONSE TO ANTI-CANCER THERAPY” (REGENERON PHARMACEUTICALS, INC., priority 2013, published 2018).

How the values were obtained:
Format in all cases: in vivo
COLO 205 tumor = test: Plasma miRNA profiling by qPCR panel in COLO 205 tumor-bearing mice, drug versus vehicle; details: for miRNAs different upon drug treatment: Higher: plasma, relative to a vehicle-treated control, 3 days, matching 14 day pattern
Method: (§1) Plasma samples (50 uL) were stored at −80° C. after receiving them. The samples were thawed on ice, and total RNA was isolated with the miRCURY RNA Isolation Kit for Biofluids (Exiqon) according to the supplied protocol (1 uL of Exiqon spike-in UniRT RNA mix was added to each sample before RNA isolation). RNA was eluted into 50 uL nuclease-free water, and either processed directly for cDNA synthesis of stored at −80° C. until that time. RNA from each sample was used to create cDNA in 40 uL reaction volume with the Universal cDNA Synthesis Kit II (Exiqon) according to the supplied protocol. RNA concentration for plasma samples is not quantitated; 8 uL each RNA sample is used without adjusting concentration. The 40 uL of cDNA per sample was then used to set-up qPCR directly or stored at −20° C. until use. The 40 uL cDNA was diluted into 4 mL of nuclease-free water, and then mixed with 4 mL 2X ExiLENT SYBR Green master mix (Exiqon) to create 8 mL qPCR mix, according to protocol supplied with miRNome Panels (Exiqon). The 8 ml master mix was then pipetted into the two 384-well plates (Exiqon microRNA Ready-to-Use PCR, Human panel I+II, V3.M), 10 ul per well according to the supplied protocol. The plates were briefly centrifuged, sealed, and run on the ABI Viia7 real time PCR thermocycler, using the PCR template program supplied by Exiqon. Results were exported as text files and then imported into the GenEx software (Exiqon) for analysis. Data pre-processing and analysis steps were performed according to the recommendations of the Exiqon Data Analysis Guide. Briefly, biological replicate were grouped, outliers were automatically detected and removed, Ct values higher than 37 were considered background and removed, missing data was filled by the GenEx software with an imputed value based on group mean. Cts for each sample were normalized to the global mean of all expressed miRNAs with a Ct<34.
(§2) Immune compromised mice were injected with COLO 205 human colorectal cancer cells and tumors were allowed to develop, after which the mice were treated with either irinotecan or vehicle for 14 days. In a second control group, normal mice maintained in parallel but not bearing tumors were treated with either irinotecan or vehicle. […] During the course of drug treatment, blood plasma samples were taken from all mice at regular intervals from 3 to 14 days. RNA was prepared from the plasma samples and analyzed for miRNA content by a panel of quantitative PCR assays for approximately 700 miRNAs. The relative quantities of each miRNA assayed were normalized to the global mean in each sample and then compared between the paired groups: drug versus vehicle treatment in tumor-bearing mice; drug versus vehicle in tumor-free mice; and tumor bearing versus tumor-free mice. Samples were taken from six replicate mice for each time point in each of the categories.
To eliminate those miRNA differences that were the result of drug treatment alone, we examined the miRNA profiles in the irinotecan treated normal, tumor-free mice compared with the same type of mice treated with vehicle.
We looked for miRNAs whose pattern of detection matched that in the mice treated with drug for 14 days. The pattern of quantification for these miRNAs—higher or lower in the drug treated mice compared to the vehicle treated controls—matched miRNAs from the 14 day time point. We found three miRNAs, miR-30d-3p, miR-483-5p, and miR-708-3p, that were elevated in the drug treated tumor bearing mice compared with the vehicle controls and 11 miRNAs, miR-21-3p, miR-101-5p, miR-122-3p, miR-197-3p, miR-429, miR-501-3p, miR-509-3p, miR-598, miR-206, miR-885-5p, and miR-1972, that were lower in the drug treated mice compared with the controls. These 14 miRNAs form a signature of plasma miRNA content that correlates with drug efficacy late in the course of drug treatment and predicts efficacy early in the drug treatment regimen before any effects of irinotecan on tumor burden could be detected. […]

[1] = test system: COLO 205 human colorectal cancer cells; test: Drug efficacy in COLO 205 tumor-bearing mice (tumor burden)
Method: as §2, with “Samples were taken from six replicate mice for each time point in each of the categories.” left out
We looked for miRNAs whose pattern of detection matched that in the mice treated with drug for 14 days. The pattern of quantification for these miRNAs—higher or lower in the drug treated mice compared to the vehicle treated controls—matched miRNAs from the 14 day time point. […] These 14 miRNAs form a signature of plasma miRNA content that correlates with drug efficacy late in the course of drug treatment and predicts efficacy early in the drug treatment regimen before any effects of irinotecan on tumor burden could be detected.

A549 lung cancer tumor = test: miRNA marker levels after A549 lung cancer tumor implantation and anti-tumor drug
Method: as §1

[2] = test system: PC3M prostate cancer tumor; test: miRNA marker levels after PC3M prostate cancer tumor implantation and anti-tumor drug
Method: as §1

[3] = three days, matched 14 day time point
[4] = three days following administration

Question: Which “detection of the 11 miRNAs in plasma of drug treated mice” value (COLO 205 tumor; detectable in the vehicle treated mice) does the source give for `CCc1c2c(nc3ccc(OC(=O)N4CCC(N5CCCCC5)CC4)cc13)-c1cc3c(c(=O)n1C2)COC(=O)[C@]3(O)CC` [irinotecan] here?
Answer: The value was “undetectable”.

Question: And the “miRNAs different upon drug treatment: Higher” value (COLO 205 tumor; miR-483-5p)?
Answer: The value was “miR-483-5p”.

Question: What about the “miRNAs different upon drug treatment: Higher” value (COLO 205 tumor; miR-708-3p) of the same compound?
Answer: The value was “miR-708-3p”.

Question: And the “miRNAs different upon drug treatment: Higher” value (COLO 205 tumor; miR-30d-3p)?
Answer: Its value is “miR-30d-3p”.

Question: What about the “plasma miR-21-3p, miR-101-5p, miR-122-3p, miR-197-3p, miR-429, miR-501-3p, miR-509-3p, miR-598, miR-206, miR-885-5p and miR-1972 in drug treated mice compared with controls” value (COLO 205 tumor; [3]) of the same compound?
Answer: Its value is “lower”.

Question: And the “plasma miR-30d-3p, miR-483-5p and miR-708-3p in drug treated tumor bearing mice compared with vehicle controls” value (COLO 205 tumor; [3])?
Answer: Its value is “elevated”.

Question: And the “detection of miR-30d-3p and miR-708-3p in plasma of treated tumor-bearing mice” value (COLO 205 tumor; tumor-bearing mice)?
Answer: Its value is “went from undetected to detected”.

Question: What about the “plasma miR-483-5p in treated tumor-bearing mice” value (COLO 205 tumor; tumor-bearing mice) of the same compound?
Answer: Its value is “increased”.

Question: And the “tumor burden in drug treated mice versus vehicle treated control group” value ([1]; after 14 days of drug treatment)?
Answer: Its value is “significantly lower tumor burden”.

Question: And the “difference in tumor burden, drug versus vehicle” value ([1]; treated for only three days)?
Answer: The value was “no significant difference in tumor burden”.

Question: Which “particular miRNA marker levels upon administration to lung tumors (FIG. 2)” value (A549 lung cancer tumor; lung tumors (A549)) does the source give for `N.N.[Cl][Pt][Cl]` [Cisplatin] here?
Answer: The value was “decrease”.

Question: And the “level of certain miRNA markers that decrease upon tumor implantation (FIG. 3)” value (A549 lung cancer tumor; [4])?
Answer: Its value is “increase”.

Question: What about the “level of certain miRNA markers that increase upon tumor implantation (FIG. 1)” value (A549 lung cancer tumor; [4]) of the same compound?
Answer: Its value is “decrease”.

Question: What about the “level of miR-16-5p, miR-1208, miR-24-3p and miR-588 (FIG. 4)” value (A549 lung cancer tumor; [4]) of the same compound?
Answer: Its value is “increase”.

Question: Which results are given for `CC(=O)O[C@@]12CO[C@@H]1C[C@H](O)[C@@]1(C)C(=O)[C@H](O)C3=C(C)[C@@H](OC(=O)[C@H](O)[C@@H](NC(=O)OC(C)(C)C)c4ccccc4)C[C@@](O)([C@@H](OC(=O)c4ccccc4)[C@H]21)C3(C)C` [Docetaxel]?
Answer: level of certain miRNA markers that decrease upon tumor implantation (FIG. 7) ([2]; following administration): increase; level of certain miRNA markers that increase upon tumor implantation (FIG. 5) ([2]; following administration): decrease; level of miR-190, miR-153 and miR-92a-1 (FIG. 6) ([2]; following administration): decrease; level of miR-634 and miR-647 (FIG. 8) ([2]; following administration): increase; particular miRNA marker levels upon administration to prostate tumors (FIG. 2) ([2]; prostate tumors (PC3M)): decrease
